The values below come from patent publication US8017611B2, “Pyridine and pyrazine derivatives -083” (AstraZeneca AB, priority 2007, dated 2011).

In test [1] the target is T1, recombinant Axl tyrosine kinase (Homo sapiens, UniProt P30530).
T1 construct: encompassing amino acids 473 to 894 of Axl; GST (N); made in house; host or cells: SF126 insect cells
T1 sequence (P30530 473-894): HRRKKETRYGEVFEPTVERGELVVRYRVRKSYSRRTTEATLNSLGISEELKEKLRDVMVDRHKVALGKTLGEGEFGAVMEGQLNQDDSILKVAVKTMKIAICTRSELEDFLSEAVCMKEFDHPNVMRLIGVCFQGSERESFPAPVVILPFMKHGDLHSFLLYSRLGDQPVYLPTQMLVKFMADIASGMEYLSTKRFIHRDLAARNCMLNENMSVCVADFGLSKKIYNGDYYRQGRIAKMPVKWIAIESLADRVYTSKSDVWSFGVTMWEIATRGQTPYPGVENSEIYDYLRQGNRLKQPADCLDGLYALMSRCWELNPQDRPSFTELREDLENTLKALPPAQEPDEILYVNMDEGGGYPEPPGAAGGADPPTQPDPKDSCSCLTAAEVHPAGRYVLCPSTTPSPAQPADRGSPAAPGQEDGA
Put plainly: In vitro Axl kinase assay (AlphaScreen), Test (a). It counts as biochemical. To be noted: for % Axl tyrosine kinase inhibition at 1 μM concentration / inhibition at 1 µM: test compound at 1 μM, first value quoted; for inhibition at 1 µM: read-out: % Axl tyrosine kinase inhibition at 1 μM concentration; for IC50: Test (a), read-out: IC50 versus Axl tyrosine kinase. Background: Bead proximity is the source of the signal in Alpha formats.

Test [2] deals with T2, Axl expressed on NCI H1299 lung large cell carcinoma cells (Homo sapiens, UniProt P30530).
T2 sequence (P30530 26-894): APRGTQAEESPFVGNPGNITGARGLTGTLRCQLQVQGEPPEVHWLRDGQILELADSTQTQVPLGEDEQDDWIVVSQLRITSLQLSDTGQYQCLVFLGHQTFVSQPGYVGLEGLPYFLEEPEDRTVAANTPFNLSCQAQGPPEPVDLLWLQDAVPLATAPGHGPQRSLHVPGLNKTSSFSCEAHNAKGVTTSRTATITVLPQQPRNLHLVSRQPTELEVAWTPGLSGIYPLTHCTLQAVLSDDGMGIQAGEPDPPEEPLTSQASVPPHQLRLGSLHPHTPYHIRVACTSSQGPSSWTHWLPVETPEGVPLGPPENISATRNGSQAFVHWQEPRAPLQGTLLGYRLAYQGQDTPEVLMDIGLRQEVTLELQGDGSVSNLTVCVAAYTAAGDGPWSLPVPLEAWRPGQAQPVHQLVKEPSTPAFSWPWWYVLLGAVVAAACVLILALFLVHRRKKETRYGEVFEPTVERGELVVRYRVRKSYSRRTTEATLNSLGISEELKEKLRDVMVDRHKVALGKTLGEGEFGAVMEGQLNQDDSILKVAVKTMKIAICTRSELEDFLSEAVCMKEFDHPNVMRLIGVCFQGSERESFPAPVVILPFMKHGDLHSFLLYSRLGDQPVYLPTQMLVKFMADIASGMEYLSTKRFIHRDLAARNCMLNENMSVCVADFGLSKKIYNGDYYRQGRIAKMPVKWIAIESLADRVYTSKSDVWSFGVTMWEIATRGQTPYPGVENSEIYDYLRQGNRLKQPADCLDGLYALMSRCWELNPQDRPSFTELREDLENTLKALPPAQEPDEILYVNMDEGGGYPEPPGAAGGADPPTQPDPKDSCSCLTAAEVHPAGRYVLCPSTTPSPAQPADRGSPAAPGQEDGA
Put plainly: Cellular phospho-Axl ELISA assay, Test (b). In general terms: In an ELISA, binding on a coated surface is turned into a signal by an enzyme label.
Description: This assay uses a conventional ELISA method to determine the ability of test compounds to inhibit phosphorylation of tyrosine residues in Axl.
100 μl Aliquots were seeded into each of the wells of a clear 96 well tissue culture plate and the plates were incubated overnight at 37° C. with 5% CO2 to allow the cells to adhere to the wells.
Aliquots of each compound concentration were added to the cells in each well using the Echo 550 (Labcyte Inc., Sunnyvale, Calif., US). Control cells received DMSO only. The cells were incubated for 2 hours at 37° C. with 5% CO2.
The resultant tissue culture plates were incubated on ice for 30 minutes to ensure full lysis.
The wells were washed 3 times with 250 μl per well of PBS containing 0.05% v/v Tween (PBS/T). The wells were treated with 3% w/v BSA in PBS at ambient temperature for 2 hours and subsequently washed 3 times with 250 μl per well of PBS/T.
50 μl Aliquots of the NCI H1299 cell lysates were added to the ELISA plates.
100 μl Aliquots of substrate solution were added to each of the wells and fluorescence was read on a Tecan Ultra plate reader (Tecan UK Ltd., Reading, Berkshire, UK).

[3] abbreviates: read-out: IC50 versus cellular phospho-Axl, Test (b), footnotes of Table A.
Where [4] appears, read: read-out: IC50 versus cellular phospho-Axl, Test (b), NCI H1299 cells stimulated with GAS6.

Read-outs that look alike come from different tables or passages of the source.

For orientation: IC50 means the concentration at which inhibition is half-maximal. As to `Nc1ncc(-c2ccc(C3CCNCC3)cc2)cc1-c1nc2ccccc2o1` [Example 2.18], the “% Axl tyrosine kinase inhibition at 1 μM concentration” value (“% Axl tyrosine kinase inhibition” for short) in test [1] is listed as “^#99.8%”. Also, the IC50 in test [2] (setting [3]) was around 70 nM.
As to `Nc1ncc(-c2cnn(C3CCNCC3)c2)cc1-c1nc2ccccc2s1` [Example 14, 3-(1,3-Benzothiazol-2-yl)-5-[1-(4-piperidyl)pyrazol-4-yl]pyridin-2-amine], the inhibition at 1 µM in test [1] is 99.9%. Further, the IC50 in test [2] was around 101 nM.
As for `Cc1nn(C2CCNCC2)cc1-c1cnc(N)c(-c2nc3ccccc3o2)c1` [Example 22, 3-(1,3-benzoxazol-2-yl)-5-[3-methyl-1-(4-piperidyl)pyrazol-4-yl]pyridin-2-amine], in test [1], the IC50 is around 0.4 nM and the inhibition at 1 µM was found to be 100%. In addition, the half-maximal inhibitory concentration (IC50) in test [2] was around 16 nM.
For the compound `CN1CCC(n2cc(-c3cnc(N)c(-c4nc5ncc(F)cc5o4)c3)cn2)CC1` [Example 41.7], the IC50 in test [2] (setting [3]) is around 234 nM.
Consider `CN1CCC(n2cc(-c3cnc(N)c(-c4nc5ccccc5o4)c3)c(CO)n2)CC1` [Example 41.19], for which the IC50 in test [1] is around 0.8 nM; in test [2] (setting [4]) it was around 7 nM. Besides, the “% Axl tyrosine kinase inhibition” value in test [1] is 100.0%.
The matching figures for `COCc1nn(C2CCN(C)CC2)cc1-c1cnc(N)c(-c2nc3ccccc3o2)c1` [Example 41.26]: around 0.3 nM, around 3 nM and 100.0%.
Take `CN1CCC(n2cc(-c3cnc(N)c(-c4nc5cccc(C#N)c5o4)c3)cn2)CC1` [Example 64, 2-[2-amino-5-[1-(1-methyl-4-piperidyl)pyrazol-4-yl]-3-pyridyl]-1,3-benzoxazole-7-carbonitrile]: in test [1], the inhibition at 1 µM came to 99.1%.
The same measure, in the same setting: for `CN1CCC(n2cc(-c3cnc(N)c(-c4nc5cccc(CO)c5o4)c3)cn2)CC1` [Example 65, [2-[2-amino-5-[1-(1-methyl-4-piperidyl)pyrazol-4-yl]-3-pyridyl]-1,3-benzoxazol-7-yl]methanol] the value was 100%.
Regarding `COCc1nn(C2CCN(C(=O)CO)CC2)cc1-c1cnc(N)c(-c2nc3ccccc3o2)c1` [Example 66, 1-[4-[4-[6-amino-5-(1,3-benzoxazol-2-yl)-3-pyridyl]-3-(methoxymethyl)pyrazol-1-yl]-1-piperidyl]-2-hydroxy-ethanone], in test [1], the IC50 was around 0.6 nM and the inhibition at 1 µM was 100%.
For `COCc1nn(C2CCN(C(=O)[C@H](C)O)CC2)cc1-c1cnc(N)c(-c2nc3ccccc3o2)c1` [Example 67.1], in test [1], the IC50 is around 0.7 nM and the “% Axl tyrosine kinase inhibition” value stood at 100.0%.
`C[C@H](O)C(=O)N1CCC(n2cc(-c3cnc(N)c(-c4nc5ccccc5o4)c3)c(CO)n2)CC1` [Example 67.2]: the “% Axl tyrosine kinase inhibition” value in test [1] was 100.0%.
Turning to `CNC(=O)CN1CCC(n2cc(-c3cnc(N)c(-c4nc5ccccc5o4)c3)c(COC)n2)CC1` [Example 68, 2-[4-[4-[6-amino-5-(1,3-benzoxazol-2-yl)-3-pyridyl]-3-(methoxymethyl)pyrazol-1-yl]-1-piperidyl]-N-methyl-acetamide], in test [1], the inhibition at 1 µM was 100%.
The same measure, in the same setting: for `CN(C)C(=O)CN1CCC(n2cc(-c3cnc(N)c(-c4nc5ccccc5o4)c3)c(CO)n2)CC1` [Example 69, 2-[4-[4-[6-amino-5-(1,3-benzoxazol-2-yl)-3-pyridyl]-3-(hydroxymethyl)pyrazol-1-yl]-1-piperidyl]-N,N-dimethyl-acetamide] the value was 100%; for `CNC(=O)c1cccc2nc(-c3cc(-c4cnn(C5CCNCC5)c4)cnc3N)oc12` [Example 70, 2-[2-amino-5-[1-(4-piperidyl)pyrazol-4-yl]-3-pyridyl]-N-methyl-1,3-benzoxazole-7-carboxamide], 99.9%.
Same read-out and setting: the value for `COCc1nn(C2CCN(C(=O)CN(C)C)CC2)cc1-c1cnc(N)c(-c2nc3ccccc3o2)c1` [Example 71, 1-[4-[4-[6-amino-5-(1,3-benzoxazol-2-yl)-3-pyridyl]-3-(methoxymethyl)pyrazol-1-yl]-1-piperidyl]-2-dimethylaminoethanone] was 100%; that for `COCc1nn(C2CCN(CCO)CC2)cc1-c1cnc(N)c(-c2nc3ccccc3o2)c1` [Example 72, 2-[4-[4-[6-amino-5-(1,3-benzoxazol-2-yl)-3-pyridyl]-3-(methoxymethyl)pyrazol-1-yl]-1-piperidyl]ethanol] was 100%.
